Measurements as given in US7553864B2, “Compounds for the treatment of inflammatory disorders and microbial diseases” (Schering Corporation, priority 2005, dated 2009).

test system: LpxC enzyme; test: LpxC enzyme assay (RapidFire high-throughput mass spectrometry); assay type: biochemical; conditions: concentration 0.10 (unit not given)
Protocol: The standard LpxC assay consists of 0.2 nM LpxC enzyme, 1.0 μM UDP-3-O—(R-3-hydroxymyristoyl)-N-acetylglucosamine, and test compound, in assay buffer and 2% DMSO. Assay buffer is comprised of 25 mM HEPES, pH 7.3, 150 mM NaCl, 2.0 mM DTT, and 0.01% BSA. The enzyme reaction is carried out in a 96-well assay plate, in a final volume of 102 μL. Solutions of test compounds are prepared in 100% DMSO. Reaction additions, in order, are (1) 2.0 μL compound solution, (2) 80 μL of assay buffer, (3) 10 μL of 10 μM UDP-3-O—(R-3-hydroxymyristoyl)-N-acetylglucosamine (in assay buffer) and, (4) 10 μL of LpxC enzyme (20 nM in assay buffer) to initiate the reaction. In positive control reactions, addition (1) has 2.0 μL of 100% DMSO (without compound); these reactions are used as the total signal (TSB) value. Reactions are incubated at room temperature for 60 minutes when 10 μL of 1 N HCl is added to stop the reaction. The plate is shaken by hand for 10 seconds to ensure complete quenching. Assay plates are sealed with foil tape, and stored at −80° C. for 24-48 hr prior to analysis.
The concentrations of substrate and product in the reaction mixtures are determined with BioTrove's proprietary RapidFire™ high-throughput mass spectrometry (HTMS). Assay mixtures are partially purified with reverse phase chromatography, where they are washed with water containing 5 mM ammonium formate and eluted onto the mass spectrometer in 80% acetonitrile, 20% water, and 5 mM ammonium formate. The mass spectrometry peak areas of the substrate and product are measured to determine the concentration of these analytes. The assay signal is the percentage of substrate that is converted to product. Percent inhibition, % I, in test samples is determined from the following equation: […]

SMILES	LpxC enzyme assay rating (% inhibition at indicated concentrations)
CNC(=O)[C@H](O)[C@@H](O)C(=O)Nc1ccc(OCCN(C)C)cc1 [Compound 39]	C (less than 10% inhibition)
CNC(=O)[C@H](O)[C@@H](O)C(=O)Nc1ccc(OCCCN(C)C)cc1 [Compound 40]	C (less than 10% inhibition)
CNC(=O)[C@H](O)[C@@H](O)C(=O)Nc1ccc(-n2cccn2)cc1 [Compound 41]	C (less than 10% inhibition)
CNC(=O)[C@H](O)[C@@H](O)C(=O)Nc1ccc(-c2cc[nH]n2)cc1 [Compound 42]	C (less than 10% inhibition)
CN(C)C(=O)[C@H](O)[C@@H](O)C(=O)Nc1ccc(C#Cc2ccccc2)cc1 [Compound 43]	C (less than 10% inhibition)

same assay, conditions: concentration 0.20 (unit not given)

SMILES	LpxC enzyme assay rating (% inhibition at indicated concentrations)
CNC(=O)[C@H](O)[C@@H](O)C(=O)Nc1ccc(OCCN(C)C)cc1 [Compound 39]	C (less than 10% inhibition)
CNC(=O)[C@H](O)[C@@H](O)C(=O)Nc1ccc(OCCCN(C)C)cc1 [Compound 40]	C (less than 10% inhibition)
CNC(=O)[C@H](O)[C@@H](O)C(=O)Nc1ccc(-n2cccn2)cc1 [Compound 41]	C (less than 10% inhibition)
CNC(=O)[C@H](O)[C@@H](O)C(=O)Nc1ccc(-c2cc[nH]n2)cc1 [Compound 42]	C (less than 10% inhibition)
CN(C)C(=O)[C@H](O)[C@@H](O)C(=O)Nc1ccc(C#Cc2ccccc2)cc1 [Compound 43]	B (10-30% inhibition)

same assay, conditions: concentration 0.39 (unit not given)

SMILES	LpxC enzyme assay rating (% inhibition at indicated concentrations)
CNC(=O)[C@H](O)[C@@H](O)C(=O)Nc1ccc(OCCN(C)C)cc1 [Compound 39]	C (less than 10% inhibition)
CNC(=O)[C@H](O)[C@@H](O)C(=O)Nc1ccc(OCCCN(C)C)cc1 [Compound 40]	C (less than 10% inhibition)
CNC(=O)[C@H](O)[C@@H](O)C(=O)Nc1ccc(-n2cccn2)cc1 [Compound 41]	C (less than 10% inhibition)
CNC(=O)[C@H](O)[C@@H](O)C(=O)Nc1ccc(-c2cc[nH]n2)cc1 [Compound 42]	B (10-30% inhibition)
CN(C)C(=O)[C@H](O)[C@@H](O)C(=O)Nc1ccc(C#Cc2ccccc2)cc1 [Compound 43]	C (less than 10% inhibition)

same assay, conditions: concentration 0.78 (unit not given)

SMILES	LpxC enzyme assay rating (% inhibition at indicated concentrations)
CNC(=O)[C@H](O)[C@@H](O)C(=O)Nc1ccc(OCCN(C)C)cc1 [Compound 39]	B (10-30% inhibition)
CNC(=O)[C@H](O)[C@@H](O)C(=O)Nc1ccc(OCCCN(C)C)cc1 [Compound 40]	B (10-30% inhibition)
CNC(=O)[C@H](O)[C@@H](O)C(=O)Nc1ccc(-n2cccn2)cc1 [Compound 41]	C (less than 10% inhibition)
CNC(=O)[C@H](O)[C@@H](O)C(=O)Nc1ccc(-c2cc[nH]n2)cc1 [Compound 42]	B (10-30% inhibition)
CN(C)C(=O)[C@H](O)[C@@H](O)C(=O)Nc1ccc(C#Cc2ccccc2)cc1 [Compound 43]	C (less than 10% inhibition)

same assay, conditions: concentration 1.56 (unit not given)

SMILES	LpxC enzyme assay rating (% inhibition at indicated concentrations)
CNC(=O)[C@H](O)[C@@H](O)C(=O)Nc1ccc(OCCN(C)C)cc1 [Compound 39]	C (less than 10% inhibition)
CNC(=O)[C@H](O)[C@@H](O)C(=O)Nc1ccc(OCCCN(C)C)cc1 [Compound 40]	C (less than 10% inhibition)
CNC(=O)[C@H](O)[C@@H](O)C(=O)Nc1ccc(-n2cccn2)cc1 [Compound 41]	B (10-30% inhibition)
CNC(=O)[C@H](O)[C@@H](O)C(=O)Nc1ccc(-c2cc[nH]n2)cc1 [Compound 42]	B (10-30% inhibition)
CN(C)C(=O)[C@H](O)[C@@H](O)C(=O)Nc1ccc(C#Cc2ccccc2)cc1 [Compound 43]	B (10-30% inhibition)

same assay, conditions: concentration 3.13 (unit not given)

SMILES	LpxC enzyme assay rating (% inhibition at indicated concentrations)
CNC(=O)[C@H](O)[C@@H](O)C(=O)Nc1ccc(OCCN(C)C)cc1 [Compound 39]	B (10-30% inhibition)
CNC(=O)[C@H](O)[C@@H](O)C(=O)Nc1ccc(OCCCN(C)C)cc1 [Compound 40]	C (less than 10% inhibition)
CNC(=O)[C@H](O)[C@@H](O)C(=O)Nc1ccc(-n2cccn2)cc1 [Compound 41]	B (10-30% inhibition)
CNC(=O)[C@H](O)[C@@H](O)C(=O)Nc1ccc(-c2cc[nH]n2)cc1 [Compound 42]	C (less than 10% inhibition)
CN(C)C(=O)[C@H](O)[C@@H](O)C(=O)Nc1ccc(C#Cc2ccccc2)cc1 [Compound 43]	B (10-30% inhibition)

same assay, conditions: concentration 6.25 (unit not given)

SMILES	LpxC enzyme assay rating (% inhibition at indicated concentrations)
CNC(=O)[C@H](O)[C@@H](O)C(=O)Nc1ccc(OCCN(C)C)cc1 [Compound 39]	B (10-30% inhibition)
CNC(=O)[C@H](O)[C@@H](O)C(=O)Nc1ccc(OCCCN(C)C)cc1 [Compound 40]	C (less than 10% inhibition)
CNC(=O)[C@H](O)[C@@H](O)C(=O)Nc1ccc(-n2cccn2)cc1 [Compound 41]	B (10-30% inhibition)
CNC(=O)[C@H](O)[C@@H](O)C(=O)Nc1ccc(-c2cc[nH]n2)cc1 [Compound 42]	B (10-30% inhibition)
CN(C)C(=O)[C@H](O)[C@@H](O)C(=O)Nc1ccc(C#Cc2ccccc2)cc1 [Compound 43]	B (10-30% inhibition)

same assay, conditions: concentration 12.50 (unit not given)

SMILES	LpxC enzyme assay rating (% inhibition at indicated concentrations)
CNC(=O)[C@H](O)[C@@H](O)C(=O)Nc1ccc(OCCN(C)C)cc1 [Compound 39]	C (less than 10% inhibition)
CNC(=O)[C@H](O)[C@@H](O)C(=O)Nc1ccc(OCCCN(C)C)cc1 [Compound 40]	B (10-30% inhibition)
CNC(=O)[C@H](O)[C@@H](O)C(=O)Nc1ccc(-n2cccn2)cc1 [Compound 41]	C (less than 10% inhibition)
CNC(=O)[C@H](O)[C@@H](O)C(=O)Nc1ccc(-c2cc[nH]n2)cc1 [Compound 42]	B (10-30% inhibition)
CN(C)C(=O)[C@H](O)[C@@H](O)C(=O)Nc1ccc(C#Cc2ccccc2)cc1 [Compound 43]	A (greater than 30% inhibition)

same assay, conditions: concentration 25 (unit not given)

SMILES	LpxC enzyme assay rating (% inhibition at indicated concentrations)
CNC(=O)[C@H](O)[C@@H](O)C(=O)Nc1ccc(OCCN(C)C)cc1 [Compound 39]	C (less than 10% inhibition)
CNC(=O)[C@H](O)[C@@H](O)C(=O)Nc1ccc(OCCCN(C)C)cc1 [Compound 40]	B (10-30% inhibition)
CNC(=O)[C@H](O)[C@@H](O)C(=O)Nc1ccc(-n2cccn2)cc1 [Compound 41]	B (10-30% inhibition)
CNC(=O)[C@H](O)[C@@H](O)C(=O)Nc1ccc(-c2cc[nH]n2)cc1 [Compound 42]	B (10-30% inhibition)
CN(C)C(=O)[C@H](O)[C@@H](O)C(=O)Nc1ccc(C#Cc2ccccc2)cc1 [Compound 43]	A (greater than 30% inhibition)

same assay, conditions: concentration 50 (unit not given)

SMILES	LpxC enzyme assay rating (% inhibition at indicated concentrations)
CNC(=O)[C@H](O)[C@@H](O)C(=O)Nc1ccc(OCCN(C)C)cc1 [Compound 39]	B (10-30% inhibition)
CNC(=O)[C@H](O)[C@@H](O)C(=O)Nc1ccc(OCCCN(C)C)cc1 [Compound 40]	C (less than 10% inhibition)
CNC(=O)[C@H](O)[C@@H](O)C(=O)Nc1ccc(-n2cccn2)cc1 [Compound 41]	B (10-30% inhibition)
CNC(=O)[C@H](O)[C@@H](O)C(=O)Nc1ccc(-c2cc[nH]n2)cc1 [Compound 42]	C (less than 10% inhibition)
CN(C)C(=O)[C@H](O)[C@@H](O)C(=O)Nc1ccc(C#Cc2ccccc2)cc1 [Compound 43]	A (greater than 30% inhibition)
